Values quoted from earlier work in patent US8197846B2, “Sustained release pharmaceutical composition” (Astellas Pharma Inc., priority 2003, dated 2012).
Structures can show the parent of a compound that is named as a salt.

Columns and labels:
[1] = not given; remark: listed apart in the source

## CCOc1ccccc1OCCN[C@H](C)Cc1ccc(OC)c(S(N)(=O)=O)c1 [Tamsulosin, (R)(−)-5-[2-[[2-(o-ethoxyphenoxy)ethyl]-amino]propyl]-2-methoxybenzenesulfonamide]
Powder triturated with lactose
  adverse reactions when administered as powder triturated with lactose: postural hypotension was induced

## CCOc1ccccc1OCCN[C@H](C)Cc1ccc(OC)c(S(N)(=O)=O)c1 [tamsulosin hydrochloride]
104 cases among 4724 cases, approval and post marketing surveillance in Japan
  adverse reactions (including abnormal clinical data) presumably related to the agent: 2.2%
Package insert, circulatory area
  frequency of hypotension, postural hypotension, blood pressure, tachycardia and palpitation: less than 0.1%
Package insert, psychoneural area
  frequency of orthostatic syncope, headache and sleepiness: less than 0.1%
[1]; 0.1 to 0.6 mg oral, healthy adult volunteers
  Cmax and AUC versus dose: increased almost in proportion to the dose administered
[1]; repeated administration per os for seven days
  day on which plasma concentration profiles reached the steady state: 4 days
